This is an account of results in patent US8168651B2, “Protein kinase modulators” (Cylene Pharmaceuticals, Inc., priority 2008, dated 2012).

For assay [1], the target named is recombinant human PIM1 (Homo sapiens (Human), UniProt P11309). Description: PIM-1 kinase activity in cell-free in vitro assay. It is filed as biochemical. Particulars: for inhibition at 0.5 µM: 500 nM compound, read-out: PIM-1: % inh 500 nM.
Assay [2] concerns Jurkat. Description: Cell proliferation modulatory activity, Jurkat. It is filed as cell-based. Particulars: Homo sapiens.
Assay [3] relates to HCT-116 human colorectal carcinoma cells. As to the kind of experiment: Cell-proliferation assay using Alamar Blue dye. Format: cell-based. Particulars: Homo sapiens, HCT-116, read-out: HCT-116 (uM), cell proliferation modulatory activity, HCT-116, second column. On the technique in general: Alamar Blue is a resazurin reagent that responds to reducing activity.
Assay [4] concerns MiaPaca human pancreatic carcinoma cells. As to the kind of experiment: Cell-proliferation assay using Alamar Blue dye. It is filed as cell-based. The conditions noted are these: MIA PaCa-2, Table 45. As to the method: A representative cell-proliferation assay protocol using Alamar Blue dye (stored at 4° C., use 20 ul per well) is described hereafter.
• a. Split and trypsinize cells. • b. Count cells using hemocytometer. • c. Plate 4,000-5,000 cells per well in 100 μl of medium and seed into a 96-well plate according to the following plate layout. Add cell culture medium only to wells B10 to B12. Wells B1 to B9 have cells but no compound added.
• d. Add 100 μl of 2× drug dilution to each well in a concentration shown in the plate layout above. At the same time, add 100 μl of media into the control wells (wells B10 to B12). Total volume is 200 μl/well. • e. Incubate four (4) days at 37° C., 5% CO2 in a humidified incubator. • f. Add 20 μl Alamar Blue reagent to each well. • g. Incubate for four (4) hours at 37° C., 5% CO2 in a humidified incubator. • h. Record fluorescence at an excitation wavelength of 544 nm and emission wavelength of 590 nm using a microplate reader.
In the assays, cells are cultured with a test compound for approximately four days, the dye then is added to the cells and fluorescence of […] dye is detected after approximately four hours. Different types of cells can be utilized in the assays (e.g., HCT-116 human colorectal carcinoma cells, PC-3 human prostatic cancer cells and MiaPaca human pancreatic carcinoma cells). Anti-proliferative effects of representative compounds are provided hereafter

Assay [5] deals with K-562. Description: Cell proliferation modulatory activity, K-562. Format: cell-based. Particulars: Homo sapiens, K562; Table 45; read-out: K-562 IC50.
In assay [6] the test system is MV-4-11. As to the kind of experiment: Cell proliferation modulatory activity, MV-4-11. Format: cell-based. Particulars: Homo sapiens, MV4-11; Table 45; read-out: MV-4-11 IC50.
Assay [7] addresses PIM2 (Homo sapiens (Human), UniProt Q9P1W9). Description: PIM2 IC50. It is filed as biochemical. Particulars: Table 45.
Assay [8] deals with phosphoBAD ser 112. As to the kind of experiment: phosphoBAD ser 112 IC50. Format: cell-based. Particulars: read-out: phosphoBAD ser 112 IC50; Table 45.
Assay [9] deals with MDAMB231. Description: MDAMB231 IC50. It is filed as cell-based. The conditions noted are these: Homo sapiens, MDA-MB-231; Table 45.

Chain of PIM2 (Q9P1W9 whole entry): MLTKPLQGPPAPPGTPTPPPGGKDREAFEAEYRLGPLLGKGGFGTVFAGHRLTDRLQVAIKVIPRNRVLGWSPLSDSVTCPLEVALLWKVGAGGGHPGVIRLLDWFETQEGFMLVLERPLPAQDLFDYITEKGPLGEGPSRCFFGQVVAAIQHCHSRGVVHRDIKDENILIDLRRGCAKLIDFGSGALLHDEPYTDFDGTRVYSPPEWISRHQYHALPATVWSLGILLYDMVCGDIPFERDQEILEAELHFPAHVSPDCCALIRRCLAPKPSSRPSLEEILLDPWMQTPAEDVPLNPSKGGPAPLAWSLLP
Chain of recombinant human PIM1 (P11309 whole entry): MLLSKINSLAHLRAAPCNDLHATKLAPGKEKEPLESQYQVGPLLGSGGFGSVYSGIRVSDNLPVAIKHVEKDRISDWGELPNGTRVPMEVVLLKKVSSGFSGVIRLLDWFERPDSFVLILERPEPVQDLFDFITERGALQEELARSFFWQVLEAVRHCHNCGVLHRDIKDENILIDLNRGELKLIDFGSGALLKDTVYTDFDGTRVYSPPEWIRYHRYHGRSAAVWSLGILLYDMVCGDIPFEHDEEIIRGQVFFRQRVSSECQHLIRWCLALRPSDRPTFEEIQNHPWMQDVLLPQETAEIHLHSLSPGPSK

With `Clc1cccc(Nc2nc3cc(-c4nnn[nH]4)ccc3c3sccc23)c1`, the inhibition at 0.5 µM in [1] (cell-free) worked out at 83.3%. The figures for the IC50 in assay [1] (cell-free) and in assay [2] were 345 nM and 8.89 µM, respectively.
On to `CNC(=O)c1cccc(Nc2nc3cc(-c4nnn[nH]4)ccc3c3sccc23)c1`, for which the results for the IC50 in assay [3], in assay [1] (cell-free) and in [2] were greater than 10 µM, 329 nM and 4.22 µM, respectively. For the same molecule, the inhibition at 0.5 µM in assay [1] (cell-free) worked out at 81.7%.
In the case of `COC(=O)c1ccc2c(c1)nc(Nc1ccccc1)c1ccncc12`, in [1] (cell-free), the inhibition at 0.5 µM was -3.02%. Also, the IC50 in [2] was determined as 0.683 µM.
Take `COC(=O)c1ccc2c(c1)nc(Nc1ccc(F)c(Cl)c1)c1ccncc12`: the IC50 in assay [3] is 3.94 µM; in assay [2], 4.25 µM. Moreover, the inhibition at 0.5 µM in assay [1] (cell-free) is 10.2%.
Regarding `COC(=O)c1ccc2c(c1)nc(Nc1cccc(OC)c1)c1ccncc12`, in assay [1] (cell-free), the inhibition at 0.5 µM turned out to be 19.4%. Also, in assay [2], the IC50 stood at 3.4 µM.
Consider `O=C(O)c1ccc2c(c1)nc(Nc1ccc(F)c(Cl)c1)c1ncncc12`, for which the inhibition at 0.5 µM in [1] (cell-free) was 54.8%. Besides, the values for the IC50 in [1] (cell-free) and in [2] were 368 nM and 4.29 µM, respectively.
For the molecule `CNC(=O)c1cccc(Nc2nc3cc(C(=O)O)ccc3c3sccc23)c1`, the figures for the IC50 in assay [3] and in assay [2] were greater than 10 µM and 8.69 µM, respectively. For the same molecule, the inhibition at 0.5 µM in [1] (cell-free) came to 18.3%.
The like results for `O=C(NC1CC1)c1cccc(Nc2nc3cc(-c4nnn[nH]4)ccc3c3sccc23)c1` were, in that order, greater than 10 µM, 6.97 µM and 46.8%.
As for `Fc1cccc(Nc2nc3cc(-c4nnn[nH]4)ccc3c3cnccc23)c1`, in assay [1] (cell-free), the inhibition at 0.5 µM was 45%. Further, in assay [2], the IC50 came out at 9.43 µM.
With `O=C(O)c1ccc2c(c1)nc(Nc1cc(Cl)cc(Cl)c1)c1ccsc12`, the values for the IC50 in [3] and in [2] were 8.76 µM and 4.31 µM, respectively. The inhibition at 0.5 µM in assay [1] (cell-free) turned out to be 67.1%.
Turning to `Fc1cc(Cl)cc(Nc2nc3c(-c4nnc[nH]4)cccc3c3cnccc23)c1`, the IC50 is less than 500 nM in assay [4]; less than 100 nM in assay [1] (Table 45); less than 5000 nM in assay [5]; less than 100 nM in [6]; greater than 1100 nM in [7]; less than 500 nM in assay [8]. Further, the IC50 in assay [9] is less than 1000 nM.
As for `c1ccc(CCNc2nc3c(-c4nc[nH]n4)cccc3c3cnccc23)cc1`, the IC50 is greater than 10000 nM in [4]; less than 100 nM in assay [1] (Table 45); greater than 10000 nM in assay [5]; less than 500 nM in assay [6]; less than 500 nM in assay [7]; less than 1000 nM in assay [8]. In assay [9], this molecule gave an IC50 of less than 10000 nM.
Turning to `Fc1cc(F)cc(Nc2nc3c(-c4nnc[nH]4)cccc3c3cnccc23)c1`, the IC50 is less than 1000 nM in assay [4]; less than 100 nM in assay [1] (Table 45); less than 5000 nM in assay [5]; less than 500 nM in assay [6]; less than 500 nM in assay [7]; less than 1000 nM in [8]. The same molecule gave an IC50 in assay [9] greater than 10000 nM.
For the molecule `NS(=O)(=O)c1cccc(Nc2nc3c(-c4nc[nH]n4)cccc3c3cnccc23)c1`, the IC50 in assay [4] is greater than 10000 nM; in assay [1] (Table 45), less than 100 nM; in [5], greater than 10000 nM; in assay [6] it was less than 500 nM; in [7], less than 500 nM; in assay [8], less than 1000 nM. For the same molecule, the IC50 in [9] was greater than 10000 nM.
As for `COc1cc(Nc2nc3c(-c4nc[nH]n4)cccc3c3cnccc23)ccc1F`, the IC50 was less than 10000 nM in [4]; less than 100 nM in assay [1] (Table 45); less than 5000 nM in [5]; less than 500 nM in assay [6]; less than 500 nM in [7]; less than 5000 nM in [8]. This molecule also registered an IC50 in assay [9] greater than 10000 nM.
Turning to `NC(=O)c1cccc2c1nc(Nc1ccc(F)cc1)c1ccncc12`, the IC50 was less than 1000 nM in assay [4]; less than 100 nM in [1] (Table 45); less than 5000 nM in assay [5]; less than 100 nM in assay [6]; less than 500 nM in [7]; less than 100 nM in assay [8]. In assay [9], this molecule showed an IC50 greater than 30000 nM.
Regarding `FC(F)(F)Oc1ccccc1Nc1nc2c(-c3nnc[nH]3)cccc2c2cnccc12`, the IC50 in assay [4] was greater than 10000 nM; in [1] (Table 45) it was less than 100 nM; in assay [5], greater than 10000 nM; in assay [6], less than 500 nM; in assay [7], less than 100 nM; in [8] it was less than 100 nM. Also, the IC50 in [9] was greater than 10000 nM.
Take `COCCNc1nc2c(-c3nc[nH]n3)cccc2c2cnccc12`: the IC50 was less than 5000 nM in assay [4]; less than 100 nM in [1] (Table 45); less than 10000 nM in assay [5]; less than 100 nM in assay [6]; less than 500 nM in assay [7]; less than 100 nM in assay [8]. In addition, the IC50 in assay [9] is less than 10000 nM.
As for `OCCNc1nc2c(-c3nnc[nH]3)cccc2c2cnccc12`, the IC50 is less than 500 nM in assay [4]; less than 500 nM in [1] (Table 45); greater than 10000 nM in assay [5]; less than 100 nM in [6]; less than 1000 nM in [7]; less than 500 nM in assay [8]. For the same molecule, the IC50 in assay [9] is greater than 10000 nM.
For the molecule `COCCOc1ccc(Nc2nc3c(-c4nnc[nH]4)cccc3c3cnccc23)cc1`, the IC50 was less than 1000 nM in assay [4]; less than 500 nM in assay [1] (Table 45); greater than 10000 nM in assay [5]; less than 100 nM in [6]; less than 1000 nM in assay [7]; less than 500 nM in assay [8]. In assay [9], this molecule gave an IC50 of less than 10000 nM.
In the case of `FC(F)(F)Oc1cccc(Nc2nc3c(-c4nnc[nH]4)cccc3c3cnccc23)c1`, the IC50 in [4] is less than 5000 nM; in assay [1] (Table 45) it was less than 500 nM; in [5], less than 500 nM; in assay [6], less than 500 nM; in assay [7], less than 1000 nM; in [8] it was less than 5000 nM. In [9], this molecule had an IC50 greater than 10000 nM.
